Some test systems named below: SNB-19 CNS; OVCAR-3 ovarian; HCC-2998 colon; SW-620 colon; NCI-H23 lung; M14 melanoma; HOP-62 NSCLC; UACC-257 melanoma; LOX IMVI melanoma; UO-31 renal.
What all share (assay): growth of human tumour cells (NCI), 48 h

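96-well plates; 48 h exposure; 5 concentrations. Endpoints by linear interpolation between flanking doses. Not reached: highest tested concentration assigned. Here, GI50 denotes the concentration required for 50% inhibition of growth. At the TGI there is no net growth.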

Turning to `CCC(C)NC1=NCC(C)S1` (stereo not drawn), the TGI with SNB-19 CNS, with OVCAR-3 ovarian, with HCC-2998 colon, in the test with SW-620 colon, in the test on NCI-H23 lung and in the test with M14 melanoma was > 100 µM in each case. Besides, the TGI in the test with HOP-62 NSCLC, in the test on UACC-257 melanoma, with LOX IMVI melanoma and in the test with UO-31 renal was > 100 µM in each case.

Take `CCOP(=O)(OCC)C(c1ccc(F)cc1)N(C(=O)NC(F)(F)F)c1cccc(C(F)(F)F)c1` (stereo not drawn): the TGI with SNB-19 CNS, in the test on OVCAR-3 ovarian, in the test on HCC-2998 colon, with SW-620 colon, in the test on NCI-H23 lung and in the test on M14 melanoma was > 100 µM each time. In addition, the TGI in the test on HOP-62 NSCLC, with UACC-257 melanoma, in the test on LOX IMVI melanoma and in the test on UO-31 renal was > 100 µM throughout.

In the case of `C=C(C)[C@H]1Cc2c(ccc3c2O[C@@H]2COc4cc(OC)c(OC)cc4[C@@H]2C3=O)O1`, the TGI is > 100 µM with SNB-19 CNS; 3.05 µM with OVCAR-3 ovarian; 8.12 µM with HCC-2998 colon; 82.8 µM with SW-620 colon; 14.1 µM in the test with NCI-H23 lung; 24.7 µM in the test with M14 melanoma. The TGI was 40.5 µM in the test on HOP-62 NSCLC, 36.7 µM in the test with UACC-257 melanoma, 8.04 µM with LOX IMVI melanoma and 58.8 µM with UO-31 renal.

Take `COc1ccccc1CNCCCN1C(=O)c2ccc3c4c(ccc(c24)C1=O)C(=O)N(CCCNCCNCCCN)C3=O`: the GI50 with SNB-19 CNS was 2.18 µM; with OVCAR-3 ovarian, 2.16 µM; in the test on HCC-2998 colon, 2.25 µM; with SW-620 colon, 1.74 µM; in the test with NCI-H23 lung it was 1.72 µM; in the test on M14 melanoma, 2.07 µM. Also, the GI50 in the test on HOP-62 NSCLC was 2.46 µM; in the test on UACC-257 melanoma, 2.53 µM; with LOX IMVI melanoma it was 2.1 µM; with UO-31 renal it was 10.8 µM. Also, the TGI in the test on SNB-19 CNS came to 11.8 µM; in the test with OVCAR-3 ovarian it was 5.65 µM; in the test on HCC-2998 colon it was 10.3 µM; with SW-620 colon, 8.91 µM; with NCI-H23 lung, 5.59 µM; in the test with M14 melanoma it was 4.49 µM. For the same compound, the TGI with HOP-62 NSCLC is 14.2 µM; with UACC-257 melanoma, 7.96 µM; in the test with LOX IMVI melanoma it was 10.4 µM; in the test with UO-31 renal, 84.5 µM.

Consider `CCOC(=O)CNC(=O)N(CC)C12CC3CC(CC(C3)C1)C2`, for which the TGI in the test with SNB-19 CNS was 430 µM; in the test with OVCAR-3 ovarian it was 287 µM; in the test on HCC-2998 colon, 402 µM; with SW-620 colon, 297 µM; in the test on NCI-H23 lung, 419 µM; in the test with HOP-62 NSCLC, 266 µM. Moreover, the results for the TGI in the test on UACC-257 melanoma, in the test with LOX IMVI melanoma and in the test with UO-31 renal were 322 µM, 252 µM and 358 µM, respectively.

For the compound `CC1CC2=C(S(=O)(=O)c3ccccc3)CC(S(=O)(=O)c3ccccc3)(S(=O)(=O)c3ccccc3)CC21` (stereo not drawn), the TGI with SNB-19 CNS, in the test with OVCAR-3 ovarian, in the test on HCC-2998 colon, in the test with SW-620 colon, with NCI-H23 lung and in the test with M14 melanoma was > 100 µM throughout. In addition, the TGI in the test with HOP-62 NSCLC, with UACC-257 melanoma, with LOX IMVI melanoma and in the test on UO-31 renal was > 100 µM each time.

As to `CCOC(=O)Cn1c(=O)ccn(COCCO)c1=O`, the TGI in the test on SNB-19 CNS, with OVCAR-3 ovarian, with HCC-2998 colon, with SW-620 colon, in the test on NCI-H23 lung and with M14 melanoma was > 100 µM throughout. Further, the TGI in the test with HOP-62 NSCLC, with UACC-257 melanoma, in the test on LOX IMVI melanoma and with UO-31 renal was > 100 µM in each case.

Take `COCc1nc2c(OC)c(-c3nc4nc(N5CCN(C)CC5)ccc4[nH]3)cc(OC)c2n1C`: the TGI was > 100 µM in the test on SNB-19 CNS; > 100 µM with OVCAR-3 ovarian; 32.4 µM in the test on HCC-2998 colon; > 100 µM with SW-620 colon; > 100 µM with NCI-H23 lung; 43.3 µM in the test with M14 melanoma. Also, the TGI is > 100 µM with HOP-62 NSCLC, 36.4 µM with UACC-257 melanoma, 39.5 µM in the test with LOX IMVI melanoma and 76.9 µM in the test with UO-31 renal.

With `NNC(=O)c1c(SCc2ccccc2)nc2c3ccccc3ccn12`, the TGI in the test with SNB-19 CNS is > 100 µM; with OVCAR-3 ovarian it was 16 µM; in the test with HCC-2998 colon it was > 100 µM; in the test with SW-620 colon it was > 100 µM; in the test with NCI-H23 lung, 52.6 µM; in the test on M14 melanoma, 41.2 µM. The TGI was > 100 µM with HOP-62 NSCLC, > 100 µM in the test with UACC-257 melanoma and 66.5 µM with UO-31 renal.

`C/C(=N/NC(N)=S)c1ccc[nH]1`: the TGI with SNB-19 CNS, with OVCAR-3 ovarian, in the test on HCC-2998 colon, in the test on SW-620 colon, in the test on NCI-H23 lung and in the test on M14 melanoma was > 100 µM in each case. For the same compound, the TGI in the test with HOP-62 NSCLC, in the test with UACC-257 melanoma, in the test on LOX IMVI melanoma and in the test with UO-31 renal was > 100 µM in each case.

As for `COc1ccc(S(=O)(=O)c2ccccc2[N+](=O)[O-])cc1`, the TGI in the test with SNB-19 CNS, in the test with OVCAR-3 ovarian, in the test with HCC-2998 colon, with SW-620 colon, in the test on NCI-H23 lung and in the test with M14 melanoma was > 100 µM in each case. Besides, the TGI with HOP-62 NSCLC, in the test with UACC-257 melanoma, with LOX IMVI melanoma and with UO-31 renal was > 100 µM each time.

`COc1cc2oc(-c3ccc(O)cc3)c(OC)c(=O)c2c(O)c1OC`: the GI50 in the test with SNB-19 CNS is > 100 µM; in the test on OVCAR-3 ovarian it was > 100 µM; with HCC-2998 colon, 18.8 µM; in the test with SW-620 colon it was > 100 µM; in the test with NCI-H23 lung, 63.4 µM; in the test on M14 melanoma, 47.2 µM. The figures for the GI50 with HOP-62 NSCLC, with UACC-257 melanoma and in the test with UO-31 renal were 42.3 µM, > 100 µM and 42.6 µM, respectively. The TGI in the test with SNB-19 CNS was > 100 µM; with OVCAR-3 ovarian it was > 100 µM; in the test on HCC-2998 colon, 72.8 µM; with SW-620 colon it was > 100 µM; in the test with NCI-H23 lung it was > 100 µM; in the test on M14 melanoma, > 100 µM. Further, the TGI in the test on HOP-62 NSCLC, in the test on UACC-257 melanoma and in the test with UO-31 renal was > 100 µM each time.

On to `CC(=O)Nc1ccc(/C=C/c2ccc(NC(=O)Nc3ccc(/C=C/c4ccc(NC(C)=O)cc4S(=O)(=O)O)c(S(=O)(=O)O)c3)cc2S(=O)(=O)O)c(S(=O)(=O)O)c1`, for which the TGI with SNB-19 CNS, with OVCAR-3 ovarian, in the test with HCC-2998 colon, in the test with SW-620 colon, with NCI-H23 lung and in the test with HOP-62 NSCLC was > 100 µM in each case. Further, the TGI in the test on UACC-257 melanoma, with LOX IMVI melanoma and in the test with UO-31 renal was > 100 µM throughout.

On to `COCCCNc1nc(N)c(C#N)c(C#N)c1C#N`, for which the TGI with SNB-19 CNS, in the test with OVCAR-3 ovarian, with HCC-2998 colon, with SW-620 colon, in the test with NCI-H23 lung and with M14 melanoma was > 10 µM in each case. Moreover, the TGI with HOP-62 NSCLC, with LOX IMVI melanoma and in the test with UO-31 renal was > 10 µM each time.

With `CCOC(=O)c1ccc(N[C@@H]2c3cc4c(cc3C(c3cc(OC)c(O)c(OC)c3)[C@H]3C(=O)OCC32)OCO4)cc1O` (stereo partly drawn), the TGI in the test on SNB-19 CNS was > 25.9 µM; in the test with OVCAR-3 ovarian, 8.75 µM; in the test on HCC-2998 colon, 3.97 µM; with SW-620 colon it was > 48.2 µM; in the test with NCI-H23 lung it was 4.26 µM; in the test on HOP-62 NSCLC, 1.56 µM. Also, the TGI with UACC-257 melanoma is > 100 µM; in the test with LOX IMVI melanoma, 0.442 µM; with UO-31 renal, 78.1 µM.

These data come from PubChem BioAssay (NCI).
